# Test results reported in patent US7858609B2, “Solid ganaxolone formulations and methods for the making and use thereof” (Marinus Pharmaceuticals, priority 2005, dated 2010).
# Test: Solubility of ganaxolone using water soluble beta cyclodextrins
# Assay type: physicochemical
# Settings: using water soluble beta cyclodextrins (beta-sulfobutyl-cyclodextrin, 2-hydroxypropylbetacyclodextrin)
# Excerpt: Ganaxolone formulations suitable for intramuscular, subcutaneous, or intravenous injection may comprise physiologically acceptable sterile aqueous or non-aqueous solutions, dispersions, suspensions or emulsions, and sterile powders for reconstitution into sterile injectable solutions or dispersions. Examples of suitable aqueous and non-aqueous carriers, diluents, solvents, or vehicles including water, ethanol, polyols (propylene glycol, polyethylene-glycol, glycerol, cremophor and the like), suitable mixtures thereof, vegetable oils (such as olive oil) and injectable organic esters such as ethyl oleate. Additionally, Ganaxolone can be dissolved at concentrations of >1 mg/ml using water soluble beta cyclodextrins (e.g. beta-sulfobutyl-cyclodextrin and 2-hydroxypropylbetacyclodextrin. Proper fluidity can be maintained, for example, by the use of a coating such as lecithin, by the maintenance of the required particle size in the case of dispersions, and by the use of surfactants. Ganaxolone formulations suitable for subcutaneous injection may also contain additives such as preserving, wetting, emulsifying, and dispensing agents. Prevention of the growth of microorganisms can be ensured by various antibacterial and antifungal agents, such as parabens, benzoic acid, benzyl alcohol, chlorobutanol, phenol, sorbic acid, and the like. […]
compound,measurement,value
"CC(=O)[C@H]1CC[C@H]2[C@@H]3CC[C@H]4C[C@](C)(O)CC[C@]4(C)[C@H]3CC[C@]12C [Ganaxolone, 3α-hydroxy-3β-methyl-5α-pregnan-20-one]",dissolved concentration,> 1 mg/mL
